Assay results taken from ChEMBL document CHEMBL1201862, “PubChem BioAssay data set” (2004).
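Protocol summary: plate cells (96-well), add compound at 5 concentrations, incubate 48 h, interpolate endpoints linearly. At the GI50, growth is halved.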 Active and inactive are the calls of the source. No stated cut-off is given here; in the data, active = GI50 up to about 1.1 µM and inactive = higher.

How the values were obtained:
Assay in all cases: NCI anticancer screen, dose series, 48 h
SK-MEL-28 = system: SK-MEL-28
UACC-257 = system: UACC-257
UACC-62 = system: UACC-62
SF-268 = system: SF-268
RXF 393 = system: RXF 393
LOX IMVI = system: LOX IMVI
HL-60 = system: HL-60
HCT-15 = system: HCT-15
SK-OV-3 = system: SK-OV-3
U-251 = system: U-251
CAKI-1 = system: CAKI-1
SR = system: SR
OVCAR-5 = system: OVCAR-5
HCT-116 = system: HCT-116
HOP-92 = system: HOP-92
NCI-H522 = system: NCI-H522
A498 = system: A498

SMILES | GI50 (SK-MEL-28) | GI50 (UACC-257) | GI50 (UACC-62) | GI50 (SF-268) | GI50 (RXF 393) | GI50 (LOX IMVI) | GI50 (HL-60) | GI50 (HCT-15) [µM] | GI50 (SK-OV-3) | GI50 (U-251) | GI50 (CAKI-1) | GI50 (SR) | GI50 (OVCAR-5) | GI50 (HCT-116) | GI50 (HOP-92) | GI50 (NCI-H522) | GI50 (A498)
CC(=O)N(O)Cc1ccccc1 | > 100 µM (inactive) | > 100 µM (inactive) | > 100 µM (inactive) | > 100 µM (inactive) | > 100 µM (inactive) | > 100 µM (inactive) | > 100 µM (inactive) | > 100 | > 100 µM (inactive) | > 100 µM (inactive) | > 100 µM (inactive) | > 100 µM (inactive) | > 100 µM (inactive) | > 100 µM (inactive) | > 100 µM (inactive) | > 100 µM (inactive) | 
CCOC(=O)C(C)(C)Oc1ccc2c(=O)cc(-c3ccc(Cl)cc3)oc2c1 | > 100 µM (inactive) | > 100 µM (inactive) | > 100 µM (inactive) | > 100 µM (inactive) | > 100 µM (inactive) | > 100 µM (inactive) | > 100 µM (inactive) | > 100 |  | > 100 µM (inactive) |  | > 100 µM (inactive) |  | > 100 µM (inactive) |  |  | > 100 µM (inactive)
COc1ccc(OC(C(=O)O)c2ccccc2)c2c1CCCC2=O (stereo unspecified) | > 100 µM (inactive) | > 100 µM (inactive) | > 100 µM (inactive) | > 100 µM (inactive) |  | > 100 µM (inactive) | > 100 µM (inactive) | > 100 | > 100 µM (inactive) | > 100 µM (inactive) | > 100 µM (inactive) |  | > 100 µM (inactive) | > 100 µM (inactive) | > 100 µM (inactive) | > 100 µM (inactive) | > 100 µM (inactive)
NCC(=O)OCN1C(=O)C2C3C=CC(C2C1=O)C1C2C(=O)N(COC(=O)CN)C(=O)C2C31 (stereo unspecified) | 19.5 µM (inactive) | 31.8 µM (inactive) | 24.2 µM (inactive) | 23.4 µM (inactive) | 24 µM (inactive) | 19.1 µM (inactive) | 18.2 µM (inactive) | 16.9 | 60.8 µM (inactive) | 18.7 µM (inactive) | 32.9 µM (inactive) |  |  | 14.6 µM (inactive) | > 100 µM (inactive) |  | 87.5 µM (inactive)
c1ccc(C2=NOC3COc4ccccc4OCC23)cc1 (stereo unspecified) | > 100 µM (inactive) | > 100 µM (inactive) | > 100 µM (inactive) | > 100 µM (inactive) | > 100 µM (inactive) | > 100 µM (inactive) | 89.5 µM (inactive) | > 100 | > 100 µM (inactive) | > 100 µM (inactive) | 97.5 µM (inactive) | > 100 µM (inactive) |  | > 100 µM (inactive) |  | > 100 µM (inactive) | > 100 µM (inactive)
CCc1oc2ccc(OC)c3c2c1C=CC=C3 | > 100 µM (inactive) | > 100 µM (inactive) | > 100 µM (inactive) | > 100 µM (inactive) | 54.1 µM (inactive) | > 100 µM (inactive) | 87.7 µM (inactive) | > 100 | > 100 µM (inactive) | > 100 µM (inactive) |  | > 100 µM (inactive) | > 100 µM (inactive) |  |  | > 100 µM (inactive) | > 100 µM (inactive)
Cc1cccc2c1C/C(=C1\CCc3c(C)cccc31)C2=O | > 100 µM (inactive) | > 100 µM (inactive) | > 100 µM (inactive) | > 100 µM (inactive) | > 100 µM (inactive) | > 100 µM (inactive) | > 100 µM (inactive) | > 100 | > 100 µM (inactive) | > 100 µM (inactive) | > 100 µM (inactive) | > 100 µM (inactive) | > 100 µM (inactive) | > 100 µM (inactive) |  |  | > 100 µM (inactive)
Cc1ccc(S(=O)(=O)N/N=C\c2c3ccccc3[n+]([O-])c3ccccc23)cc1 | 3.78 µM (inactive) | 9.95 µM (inactive) | 5.55 µM (inactive) | 4.23 µM (inactive) |  | 1.08 µM (active) | 0.889 µM (active) | 0.989 | 14.7 µM (inactive) | 3.93 µM (inactive) | 6.28 µM (inactive) |  | 14.7 µM (inactive) | 0.472 µM (active) | 3.68 µM (inactive) | 2.02 µM (inactive) | 3.8 µM (inactive)
C=CCNC(=O)N(CCCCC(NC(C)=O)C(=O)NCc1ccccc1)Cc1ccccc1 (stereo unspecified) | > 100 µM (inactive) | > 100 µM (inactive) | > 100 µM (inactive) | > 100 µM (inactive) | > 100 µM (inactive) | > 100 µM (inactive) | > 100 µM (inactive) | > 100 | > 100 µM (inactive) | > 100 µM (inactive) | > 100 µM (inactive) |  | > 100 µM (inactive) |  | 65.8 µM (inactive) | > 100 µM (inactive) | > 100 µM (inactive)
